# Results reported in publication PMC9225722, “Synthesis and biological evaluation of thieno[3,2-c]pyrazol-3-amine derivatives as potent glycogen synthase kinase 3β inhibitors for Alzheimer’s disease” (Journal of Enzyme Inhibition and Medicinal Chemistry, 2022).
# Entries after “also recorded” stand apart in the source; their conditions may differ.
# Assays:
# [1] = test system: tau phosphorylation at Ser396; test: Inhibition of Aβ-induced tau hyperphosphorylation (Western blot) in SH-SY5Y cells; type: cell-based, human; settings: 20 μM Aβ25-35 stimulated (Aβ25-35 alone 0.83)
# Description: GSK-3β phosphorylates tau at sites (Ser199, Ser396, and Ser443), and the hyperphosphorylated tau aggregate into NFTs in AD[63]. Inhibition of GSK-3β could reduce tau hyperphosphorylation. Therefore, the cell-based assay examining Aβ-induced tau phosphorylation at Ser396 represents a direct functional assay to measure the cellular activity of GSK-3β inhibitors. To investigate the effect of 16b on tau phosphorylation, Western blot analysis was carried out to check Aβ-induced tau protein hyperphosphorylation at Ser396 in SH-SY5Y cells, using LiCl as the control. […] At the concentration of 5 μM, 10 μM and 20 μM, 16b decreased the phosphorylation tau level to 0.70, 0.52, 0.40, respectively.
# Figure 7. Inhibition of Aβ-induced tau phosphorylation by 16b in SH-SY5Y cells. Values are reported as the mean ± SD of three independent experiments. *p < 0.05, **p < 0.01, ***p < 0.001 vs control.
# SH-SY5Y cells were seeded in 12-well plates until 80% confluence, serum-deprived for 12 h. Cells were pre-incubated with compound 16b or LiCl for 1 h, thereafter stimulated with Aβ25–35 (Sigma) for another 6 h. According to the previously reported method[64]^,[75], the phosphorylated tau was determined.
# SH-SY5Y cells = test: Neuronal neurite outgrowth assay; type: cell-based, human; settings: 10 μM, 72 h, compared with RA (10 μM)
# From the text: Differentiated SH-SY5Y cells express neurogenesis-related markers, including growth-associated protein 43 (GAP43), the N-myc gene as well as neuronal polarity marker microtubule-associated protein 2 (MAP-2). GAP43 is an intrinsic determinant of neuronal development and plasticity which regulates axon growth and regeneration[68]^,[69]. N-myc is indispensable to normal neurogenesis in the expansion of progenitor cell populations. MAP-2 regulates neuronal development, structural stability and synaptic plasticity through the formation of axonal and dendritic processes[71]^,[72]. Inhibition of GSK-3β could induce neurogenesis and promote the expressions of the neurogenesis-related markers. Firstly, we used SH-SY5Y cells to study the effect of 16b on neurite outgrowth, using retinoic acid (RA) as a positive control. After incubating with 16b (10 μM) or RA (10 μM) for 72 h, the morphology of differentiated neuronal neurite outgrowth were obtained.
# Figure 8. (A) Effect of 16b (10 μM) on neurite outgrowth (72 h). Red arrows indicated cells bearing neurites. […]
# SH-SY5Y cells (5 × 10^3) were planted in 96-well plates and cultivated at 37 °C for 24 h. […] After the SH-SY5Y cells were cultivated for 24 h, total RNA was extracted, and quantitative RT-PCR was performed according to the previously reported method.
# GSK-3β = GSK-3β (Homo sapiens, UniProt P49841); test: GSK-3β kinase assay (calliper mobility shift assay); type: biochemical; settings: mean ± SD from two separate experiments; calliper mobility shift assay
# Sequence of GSK-3β (P49841 whole entry): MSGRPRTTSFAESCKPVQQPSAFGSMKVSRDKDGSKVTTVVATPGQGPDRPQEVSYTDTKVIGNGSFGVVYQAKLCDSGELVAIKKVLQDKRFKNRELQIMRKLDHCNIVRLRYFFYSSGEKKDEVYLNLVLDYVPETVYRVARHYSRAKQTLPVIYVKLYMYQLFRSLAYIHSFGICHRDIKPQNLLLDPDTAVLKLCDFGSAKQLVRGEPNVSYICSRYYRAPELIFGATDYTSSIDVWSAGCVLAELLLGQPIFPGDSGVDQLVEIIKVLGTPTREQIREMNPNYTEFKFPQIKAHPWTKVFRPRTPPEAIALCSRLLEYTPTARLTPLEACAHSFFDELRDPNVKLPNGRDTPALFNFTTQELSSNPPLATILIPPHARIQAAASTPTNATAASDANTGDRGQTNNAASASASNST
# [2] = test system: panel of 21 diverse kinases; test: Kinase selectivity screen, whole panel; type: biochemical, human; settings: 1.0 μM compound, Km ATP, 21 kinases
# From the text: The potent GSK-3β inhibitor 16b was next subjected to kinase selectivity assay. A panel of kinases which were structurally related to GSK-3β was used for the GSK-3β selectivity studies[26]^,[37]^,[38]. […] GSK-3α and GSK-3β are known to share a 98% sequence homology at the catalytic site[42]. CDK5 and GSK-3 belong to the CMGC protein kinase family, which shared highly homology with each other[43]^,[44]. CDK5 is known abnormally activated and also responsible for the tau hyperphosphorylation in AD[45]. It was known that Aβ could increase CK2 activity, which in turn accelerated the tau phosphorylation in AD[46]. Therefore, the inhibition of CDK5 and CK2 by 16b may be beneficial for its anti-AD activities.
# Figure 3. Effects of compound 16b on the activities of 21 protein kinases in vitro. Protein kinases were of human origin and assayed in the presence of 1.0 μM compound 16b or vehicle (DMSO). The enzymatic activity was measured in the presence of Km ATP. Kinase activities were given as the mean of twice determinations. […]
# Compound 16b was evaluated for kinase selectivity at Eurofins Cerep SA (Celle-L’Evescault, France) in enzymatic radioactive assays in a panel of 21 different kinases (including GSK-3β) from diverse families. […] The enzymatic activity was measured in the presence of Km ATP.
structure (smiles),measurement,setting,value
"CC(C)C(=O)Nc1n[nH]c2cc(-c3cccnc3)sc12 [Compound 16b, N-(5-(pyridin-3-yl)-1H-thieno[3,2-c]pyrazol-3-yl)isobutyramide]",p-tau/GAPDH ratio (Ser396),[1]; 5 μM,0.70
same,p-tau/GAPDH ratio (Ser396),[1]; 10 μM,0.52
same,p-tau/GAPDH ratio (Ser396),[1]; 20 μM,0.40
same,neurite outgrowth of SH-SY5Y cells,SH-SY5Y cells,substantial ability in inducing SH-SY5Y cells neurite outgrowth
same,IC50,GSK-3β,3.1 ± 0.1 nM
same,kinase selectivity over most of the kinases of the panel,[2],good selectivity; also recorded: accepted kinase selectivity
